Reference: patent US20120022054A1, “NOVEL SUBSTITUTED ARYL DERIVATIVES, THEIR PROCESS OF PREPARATION AND THEIR THERAPEUTICAL USES AS ANTI-HIV AGENTS” (priority 2008, published 2012)

Experiments:
[1] = tested on: NL4-3 strain of HIV-1; assay: Multiple cycle infection assay of CAp24 antigen production; type: cell-based; conditions: Human immunodeficiency virus 1, NL43, SUP-T1, 96 h, multiple cycle infection with NL4-3 virus, SupT1, MT4 or PBMC, MOI 0.01, day 4 and day −6 post-infection; threshold below 5 μM; read-out: EC50 for antiviral activity (50% inhibition of CA p24 production)
[2] = tested on: Env-deleted NL4-3 vector virus pseudotyped with the VSV g envelope; assay: microbe, parasite or virus in culture; type: cell-based, HIV-1; conditions: Vesicular stomatitis virus, NL43, SUP-T1, 48 h, read-out: EC50 for antiviral activity (50% inhibition of luciferase activity)

SMILES	EC50 [1] [µM]	EC50 [2] [µM]
CN(Cc1ccccc1C(F)(F)F)C(=O)CCCSc1ccc(O)cc1 [Example 15, 4-[(4-Hydroxyphenyl)thio]-N-methyl-N-[2-(trifluoromethyl)benzyl]butanamide]	< 5	< 5
COc1ccccc1CN(C)C(=O)CCCSc1ccc2ccccc2c1 [Example 17, N-(2-Methoxybenzyl)-N-methyl-4-(2-naphthylthio)butanamide]	< 5	< 5
COc1ccccc1CN(C)C(=O)CCCCc1ccc(O)cc1 [Example 19, 5-(4-Hydroxyphenyl)-N-(2-methoxybenzyl)-N-methylpentanamide]	< 5	< 5
COc1ccccc1CN(C)C(=O)CCCSc1ccc(NC(C)=O)cc1 [Example 20, 4-{[4-(Acetylamino)phenyl]thio}-N-(2-methoxybenzyl)-N-methylbutanamide]	< 5	< 5
CN(Cc1cccc2c1OCC2)C(=O)CCCSc1ccc(O)cc1 [Example 22, N-(2,3-Dihydro-1-benzofuran-7-ylmethyl)-4-[(4-hydroxyphenyl)thio]-N-methylbutanamide]	< 5	< 5
COc1ccccc1CN(C)C(=O)CCCSc1cccc(O)c1 [Example 26, 4-[(3-hydroxyphenyl)thio]-N-(2-methoxybenzyl)-N-methylbutanamide]	< 5	< 5
CN(Cc1ccccc1OC(F)(F)F)C(=O)CCCSc1ccc(O)cc1 [Example 27, 4-[(4-hydroxyphenyl)thio]-N-methyl-N-[2-(trifluoromethoxy)benzyl]butanamide]	< 5	< 5
COc1cccc(CN(C)C(=O)CCCSc2ccc(O)cc2)c1OC [Example 29, N-(2,3-dimethoxybenzyl)-4-[(4-hydroxyphenyl)thio]-N-methylbutanamide]	< 5	< 5
CCOc1ccccc1CN(C)C(=O)CCCSc1ccc(O)cc1 [Example 30, N-(2-ethoxybenzyl)-4-[(4-hydroxyphenyl)thio]-N-methylbutanamide]	< 5	< 5
CN(Cc1c(F)cccc1Cl)C(=O)CCCSc1ccc(O)cc1 [Example 31, N-(2-chloro-6-fluorobenzyl)-4-[(4-hydroxyphenyl)thio]-N-methylbutanamide]	< 5	< 5
CN(Cc1cccc(Cl)c1Cl)C(=O)CCCSc1ccc(O)cc1 [Example 34, N-(2,3-Dichlorobenzyl)-4-[(4-hydroxyphenyl)thio]-N-methylbutanamide]	< 5	< 5
COc1ccccc1CN(C)C(=O)CCCSc1ccc(O)cc1 [Example 35, 4-[(4-Hydroxyphenyl)thio]-N-(2-methoxybenzyl)-N-methylbutanamide]	< 5	< 5
Cc1ccccc1CN(C)C(=O)CCCSc1ccc(O)cc1 [Example 37, 4-[(4-Hydroxyphenyl)thio]-N-methyl-N-(2-methylbenzyl)butanamide]	< 5	< 5
COc1ccccc1CN(C)C(=O)CCCSc1ccc2ccccc2n1 [Example 39, N-(2-Methoxybenzyl)-N-methyl-4-(quinolin-2-ylthio)butanamide]	< 5	< 5
CC(C)Oc1ccccc1CN(C)C(=O)CCCSc1ccc(O)cc1 [Example 41, 4-[(4-Hydroxyphenyl)thio]-N-(2-isopropoxybenzyl)-N-methylbutanamide]	< 5	< 5
COc1ccc(SCCCC(=O)N(C)Cc2ccccc2OC)cc1 [Example 42, N-(2-Methoxybenzyl)-4-[(4-methoxyphenyl)thio]-N-methylbutanamide]	< 5	< 5
CCOC(=O)N1CCN(c2ccccc2CN(C)C(=O)CCCSc2ccc(O)cc2)CC1 [Example 47, Ethyl 4-[2-({4-[(4-hydroxyphenyl)thio]butanoyl}methylamino)methylphenyl]-piperazine-1-carboxylate]	< 5	< 5
CC(C)Oc1ccccc1CN(C)C(=O)CCCSc1ccc(F)cc1 [Example 50, 4-[(4-Fluorophenyl)thio]-N-(2-isopropoxybenzyl)-N-methylbutanamide]	< 5	< 5
CN(Cc1ccccc1N1CCN(CCN2CCOCC2)CC1)C(=O)CCCSc1ccc(O)cc1 [Example 53, 4-[(4-Hydroxyphenyl)thio]-N-methyl-N-{2-[4-(2-morpholin-4-ylethyl)piperazin-1-yl]benzyl}butanamide]	< 5	< 5
COc1ccccc1CN(C)C(=O)CCCC(=O)c1ccc(F)cc1 [Example 56, 5-(4-Fluorophenyl)-N-(2-methoxybenzyl)-N-methyl-5-oxopentanamide]	< 5	< 5

SMILES	EC50 [1] [µM]	EC50 [2] [µM]
CC(C)Oc1ccccc1CN(C)C(=O)CCCCc1ccc(O)cc1 [Example 59, 5-(4-Hydroxyphenyl)-N-(2-isopropoxybenzyl)-N-methylpentanamide]	< 5	< 5
COCc1ccccc1CN(C)C(=O)CCCSc1ccc(O)cc1 [Example 65, 4-[(4-Hydroxyphenyl)thio]-N-[2-(methoxymethyl)benzyl]-N-methylbutanamide]	< 5	< 5
COc1c(C)cccc1CN(C)C(=O)CCCSc1ccc(O)cc1 [Example 69, 4-[(4-Hydroxyphenyl)thio]-N-(2-methoxy-3-methylbenzyl)-N-methylbutanamide]	< 5	< 5
CN(Cc1ccccc1N1CCN(CCO)CC1)C(=O)CCCSc1ccc(O)cc1 [Example 73, N-{2-[4-(2-hydroxyethyl)piperazin-1-yl]benzyl}-4-[(4-hydroxyphenyl)thio]-N-methylbutanamide]	< 5	< 5
COc1c(Cl)cc(Cl)cc1CN(C)C(=O)CCCSc1ccc(O)cc1 [Example 74, N-(3,5-Dichloro-2-methoxybenzyl)-4-[(4-hydroxyphenyl)thio]-N-methylbutanamide]	< 5	< 5
COc1cc(C)ccc1CN(C)C(=O)CCCSc1ccc(O)cc1 [Example 75, 4-[(4-Hydroxyphenyl)thio]-N-(2-methoxy-4-methylbenzyl)-N-methylbutanamide]	< 5	< 5
CN(Cc1ccccc1N1CCN(c2ccc(C(F)(F)F)cn2)CC1)C(=O)CCCNCc1ccc(F)cc1 [Example 80, 4-[(4-Fluorophenyl)methylamino]-N-methyl-N-(2-{4-[5-(trifluoromethyl)pyridin-2-yl]piperazin-1-yl}benzyl)butanamide]	< 5	< 5
COc1ccc(SCCCC(=O)N(C)Cc2cc(F)ccc2OC)cc1 [Example 87, N-(5-Fluoro-2-methoxybenzyl)-4-[(4-methoxyphenyl)thio]-N-methylbutanamide]	< 5	< 5
C=CCOc1ccccc1CN(C)C(=O)CCCSc1ccc(F)cc1 [Example 90, N-[2-(Allyloxy)benzyl]-4-[(4-fluorophenyl)thio]-N-methylbutanamide]	< 5	< 5
COc1ccc(Br)cc1CN(C)C(=O)CCCSc1ccc(F)cc1 [Example 92, N-(5-Bromo-2-methoxybenzyl)-4-[(4-fluorophenyl)thio]-N-methylbutanamide]	< 5	< 5
COc1ccccc1CN(C)C(=O)CCCSc1ccc(NS(C)(=O)=O)cc1 [Example 93, N-(2-Methoxybenzyl)-N-methyl-4-{[4-(methylsulfonylamino)phenyl]thio}butanamide]	< 5	< 5
CN(Cc1ccccc1-c1ccco1)C(=O)CCCSc1ccc(F)cc1 [Example 95, 4-[(4-fluorophenyl)thio]-N-[2-(2-furyl)benzyl]-N-methylbutanamide]	< 5	< 5
CN(Cc1cc(F)cc2c1OCOC2)C(=O)CCCSc1ccc(F)cc1 [Example 96, N-[(6-fluoro-4H-1,3-benzodioxin-8-yl)methyl]-4-[(4-fluorophenyl)thio]-N-methylbutanamide]	< 5	< 5
COc1ccc(-n2cccn2)c(CN(C)C(=O)CCCSc2ccc(F)cc2)c1 [Example 98, 4-[(4-fluorophenyl)thio]-N-[5-methoxy-2-(pyrazol-1-yl)benzyl]-N-methylbutanamide]	< 5	< 5
C=CCOc1ccc(Cl)cc1CN(C)C(=O)CCCSc1ccc(F)cc1 [Example 101, N-[2-(allyloxy)-5-chlorobenzyl]-4-[(4-fluorophenyl)thio]-N-methylbutanamide]	< 5	< 5
COc1ccc(F)cc1N(C)C(=O)CCCSc1ccc(F)cc1 [Example 102, N-(5-fluoro-2-methoxyphenyl)-4-[(4-fluorophenyl)thio]-N-methylbutanamide]	< 5	< 5
COc1ccc2c(ccn2CCCC(=O)N(C)Cc2cc(F)ccc2OC)c1 [Example 109, N-(5-fluoro-2-methoxybenzyl)-4-(5-methoxy-1H-indol-1-yl)-N-methylbutanamide]	< 5	< 5
COc1ccc(F)cc1CN(C)C(=O)CCCSc1ccc(C)cc1 [Example 111, N-(5-fluoro-2-methoxybenzyl)-N-methyl-4-[(4-methylphenyl)thio]butanamide]	< 5	< 5
COc1ccc(F)cc1CN(C)C(=O)CCCSc1ccc(Cl)cc1 [Example 112, 4-[(4-chlorophenyl)thio]-N-(5-fluoro-2-methoxybenzyl)-N-methylbutanamide]	< 5	< 5
COc1ccc(SCCCC(=O)N(C)Cc2cc(Cl)ccc2OC)cc1 [Example 115, N-(5-chloro-2-methoxybenzyl)-4-[(4-methoxyphenyl)thio]-N-methylbutanamide]	< 5	< 5
